Assay: xn = mol fraction of the nth substance listed

CC(C)c1ccccc1 + CN(C)c1ccccc1
viscosity [mPa·s], 101 kPa
Conditions | x1 = 0.2 | x1 = 0.4 | x1 = 0.6 | x1 = 0.8
293.15 K | 1.228 | 1.085 | 0.963 | 0.865
313.15 K | 0.915 | 0.817 | 0.733 | 0.666

Oc1ccccc1Cl + CN(C)c1ccccc1
101 kPa
Conditions | viscosity [mPa·s]
293.15 K, x1 = 0.1395 | 1.859
293.15 K, x1 = 0.2654 | 2.43
293.15 K, x1 = 0.3923 | 3.05
293.15 K, x1 = 0.5102 | 3.7
293.15 K, x1 = 0.5898 | 4.14
293.15 K, x1 = 0.6926 | 4.69
293.15 K, x1 = 0.743 | 4.89
293.15 K, x1 = 0.7994 | 5
293.15 K, x1 = 0.8299 | 4.98
293.15 K, x1 = 0.896 | 4.74
298 K, x1 = 0.1002 | 1.53
298 K, x1 = 0.199 | 1.698
298 K, x1 = 0.3025 | 2.194
298 K, x1 = 0.4016 | 2.558
298 K, x1 = 0.502 | 3.036
298 K, x1 = 0.6009 | 3.48
298 K, x1 = 0.6991 | 3.758
298 K, x1 = 0.8 | 3.852
298 K, x1 = 0.9019 | 3.691
303 K, x1 = 0.1002 | 1.384
303 K, x1 = 0.199 | 1.522
303 K, x1 = 0.3025 | 1.937
303 K, x1 = 0.4016 | 2.2
303 K, x1 = 0.502 | 2.564
303 K, x1 = 0.6009 | 2.904
303 K, x1 = 0.6991 | 3.121
303 K, x1 = 0.8 | 3.212
303 K, x1 = 0.9019 | 3.106
303.15 K, x1 = 0.1395 | 1.473
303.15 K, x1 = 0.2654 | 1.89
303.15 K, x1 = 0.3923 | 2.35
303.15 K, x1 = 0.5102 | 2.79
303.15 K, x1 = 0.5898 | 3.09
303.15 K, x1 = 0.6926 | 3.41
303.15 K, x1 = 0.743 | 3.505
303.15 K, x1 = 0.7994 | 3.545
303.15 K, x1 = 0.8299 | 3.545
303.15 K, x1 = 0.896 | 3.41
308 K, x1 = 0.1002 | 1.254
308 K, x1 = 0.199 | 1.366
308 K, x1 = 0.3025 | 1.702
308 K, x1 = 0.4016 | 1.951
308 K, x1 = 0.502 | 2.221
308 K, x1 = 0.6009 | 2.476
308 K, x1 = 0.6991 | 2.681
308 K, x1 = 0.8 | 2.757
308 K, x1 = 0.9019 | 2.662
313 K, x1 = 0.1002 | 1.171
313 K, x1 = 0.199 | 1.234
313 K, x1 = 0.3025 | 1.527
313 K, x1 = 0.4016 | 1.736
313 K, x1 = 0.502 | 1.965
313 K, x1 = 0.6009 | 2.152
313 K, x1 = 0.6991 | 2.335
313 K, x1 = 0.8 | 2.397
313 K, x1 = 0.9019 | 2.36
313.15 K, x1 = 0.1395 | 1.243
313.15 K, x1 = 0.2654 | 1.41
313.15 K, x1 = 0.3923 | 1.66
313.15 K, x1 = 0.5102 | 1.915
313.15 K, x1 = 0.5898 | 2.085
313.15 K, x1 = 0.6926 | 2.305
313.15 K, x1 = 0.743 | 2.4
313.15 K, x1 = 0.7994 | 2.47
313.15 K, x1 = 0.8299 | 2.475
313.15 K, x1 = 0.896 | 2.45
318 K, x1 = 0.1002 | 1.077
318 K, x1 = 0.199 | 1.122
318 K, x1 = 0.3025 | 1.382
318 K, x1 = 0.4016 | 1.56
318 K, x1 = 0.502 | 1.728
318 K, x1 = 0.6009 | 1.899
318 K, x1 = 0.6991 | 2.05
318 K, x1 = 0.8 | 2.173
318 K, x1 = 0.9019 | 2.028

CCCN + CNC(C)=O
308.15 K, 101 kPa
Conditions | viscosity [mPa·s]
x2 = 0.0288 | 0.3203
x2 = 0.161 | 0.4788
x2 = 0.322 | 0.6904
x2 = 0.4077 | 0.8508
x2 = 0.5208 | 1.16
x2 = 0.6414 | 1.544
x2 = 0.7368 | 1.882
x2 = 0.8217 | 2.222
x2 = 0.9755 | 3.191

Oc1ccccc1Cl + CNc1ccccc1
viscosity [mPa·s], 101 kPa
Conditions | x1 = 0.1013 | x1 = 0.2024 | x1 = 0.3005 | x1 = 0.4032 | x1 = 0.5007 | x1 = 0.6027 | x1 = 0.7 | x1 = 0.7936 | x1 = 0.9042
298 K | 2.395 | 2.887 | 3.546 | 4.142 | 4.746 | 4.883 | 4.922 | 4.587 | 3.898
303 K | 2.112 | 2.493 | 2.984 | 3.445 | 3.801 | 3.963 | 3.966 | 3.715 | 3.352
308 K | 1.84 | 2.126 | 2.526 | 2.863 | 3.129 | 3.277 | 3.305 | 3.117 | 2.77
313 K | 1.622 | 1.826 | 2.115 | 2.42 | 2.678 | 2.75 | 2.793 | 2.704 | 2.506
318 K | 1.443 | 1.598 | 1.883 | 2.075 | 2.302 | 2.34 | 2.42 | 2.342 | 2.198

CCC(CC)CO + CO
298.15 K, 101.33 kPa
Conditions | viscosity [mPa·s]
x2 = 0.1241 | 4.806
x2 = 0.2054 | 4.143
x2 = 0.3133 | 3.38
x2 = 0.4534 | 2.454
x2 = 0.5051 | 2.214
x2 = 0.6004 | 1.744
x2 = 0.7073 | 1.33
x2 = 0.8019 | 1.041
x2 = 0.9015 | 0.7598

CCCCOC(C)=O + CO
303.15 K, 101.33 kPa
Conditions | viscosity [mPa·s]
x1 = 0.0963 | 0.528
x1 = 0.1331 | 0.533
x1 = 0.1759 | 0.539
x1 = 0.2825 | 0.552
x1 = 0.3931 | 0.566
x1 = 0.4804 | 0.577
x1 = 0.5458 | 0.585
x1 = 0.6116 | 0.592
x1 = 0.6478 | 0.596
x1 = 0.7391 | 0.606
x1 = 0.8007 | 0.612
x1 = 0.8409 | 0.616
x1 = 0.8858 | 0.621
x1 = 0.924 | 0.624

CCCN + CO
298.15 K, 100 kPa
Conditions | viscosity [mPa·s]
x2 = 0.0987 | 0.4013
x2 = 0.1995 | 0.4374
x2 = 0.2868 | 0.4756
x2 = 0.397 | 0.5323
x2 = 0.4985 | 0.5872
x2 = 0.5475 | 0.6104
x2 = 0.6249 | 0.6414
x2 = 0.6977 | 0.658
x2 = 0.8 | 0.652
x2 = 0.8982 | 0.6144
x2 = 0.9499 | 0.5827

— the CheMixHub viscosity set
